Measurements published in the NIST ThermoML archive (doi:10.1016/j.fluid.2012.11.013).

Details: Liquid, Vibrating tube method

CCCC(C)C [2-methylpentane]
mass density [kg/m3]
Details	283.15 K	288.15 K	293.15 K	298.15 K	303.15 K	308.15 K	313.15 K	318.15 K	323.15 K	328.15 K
100 kPa	662.38	657.8	653.28	648.63	643.96	639.25	634.49	629.65	624.76	619.82
2000 kPa	664.49	659.95	655.38	651	646.27	641.65	637.11	632.32	627.48	622.75
5000 kPa	667.45	663.16	658.76	654.32	649.83	645.36	640.96	636.32	631.78	627.22
7000 kPa	669.44	665.17	660.81	656.61	652.12	647.77	643.31	638.86	634.39	629.87
10000 kPa	672.23	668.05	663.8	659.71	655.36	651.1	646.93	642.49	638.24	633.86
20000 kPa	680.99	677.13	673.11	669.38	665.3	661.38	657.45	653.46	649.56	645.47
30000 kPa	689.02	685.21	681.56	677.93	673.98	670.38	666.76	663.07	659.4	655.55
40000 kPa	696.18	692.59	689.05	685.62	682.03	678.4	675.03	671.49	667.99	664.47
50000 kPa	702.82	699.4	695.95	692.66	689.27	685.81	682.68	679.17	675.91	672.49
60000 kPa	708.98	705.61	702.39	699.21	695.84	692.62	689.53	686.27	683.16	679.93
65000 kPa	711.97	708.71	705.49	702.34	699.14	695.97	692.86	689.7	686.56	683.41

CCC(C)CC [3-methylpentane]
mass density [kg/m3]
Details	283.15 K	288.15 K	293.15 K	298.15 K	303.15 K	308.15 K	313.15 K	318.15 K	323.15 K	328.15 K
100 kPa	673.34	668.91	664.28	659.73	655.07	650.44	645.7	640.93	636.14	631.22
2000 kPa	675.33	670.93	666.4	661.91	657.33	652.85	648.1	643.46	638.83	634.03
5000 kPa	678.2	673.95	669.49	665.13	660.71	656.28	651.77	647.27	642.73	638.2
7000 kPa	680.08	675.9	671.54	667.22	662.86	658.61	654.13	649.71	645.26	640.84
10000 kPa	682.8	678.66	674.41	670.25	666	661.77	657.53	653.27	648.88	644.64
20000 kPa	691.21	687.28	683.39	679.53	675.49	671.68	667.66	663.74	659.72	655.85
30000 kPa	698.81	695.19	691.45	687.73	683.96	680.42	676.56	672.89	669.28	665.6
40000 kPa	705.94	702.32	698.72	695.4	691.63	688.33	684.59	681.17	677.73	674.39
50000 kPa	712.39	708.77	705.44	702.25	698.64	695.51	692.01	688.56	685.39	682.22
60000 kPa	718.5	715.04	711.72	708.63	705.24	702.1	698.74	695.68	692.42	689.42
65000 kPa	721.33	718.14	714.81	711.62	708.41	705.28	702.04	699.05	695.87	692.79
